The source of these data is ChEMBL document CHEMBL1649242, “Molecular epidemiology of CTX-M-producing Escherichia coli isolates at a tertiary medical center in western Pennsylvania” (Antimicrob Agents Chemother, 2009).

The source made the active and inactive calls. The calls are words filed in the database; no cut-off is given here.

Holding throughout (type): functional, organism-based
In test [1] the test system is Escherichia coli. The experiment in a line: Antimicrobial activity against CTX-M-15 ESBL producing Escherichia coli clinical isolate by CLSI disk diffusion assay. On the technique in general: A growth-free zone around the sample is the usual read-out of agar diffusion tests.
The subject of test [2] is Escherichia coli. The experiment in a line: Antimicrobial activity against CTX-M ESBL producing Escherichia coli clinical isolate by CLSI disk diffusion assay.
In test [3] the test system is Escherichia coli. Kind of test: Antimicrobial activity against SHV-7 ESBL producing Escherichia coli clinical isolate by CLSI disk diffusion assay.
Test [4] concerns Escherichia coli. The experiment in a line: Antimicrobial activity against TEM-10 ESBL producing Escherichia coli clinical isolate by CLSI disk diffusion assay.
Test [5] relates to Escherichia coli. Kind of test: Antimicrobial activity against SHV-5 ESBL producing Escherichia coli clinical isolate by CLSI disk diffusion assay.

Turning to `CC(C)(O/N=C(\C(=O)N[C@@H]1C(=O)N2C(C(=O)[O-])=C(C[n+]3ccccc3)CS[C@H]12)c1csc(N)n1)C(=O)O`, the outcome with Escherichia coli [1], in the test with Escherichia coli [2], in the test with Escherichia coli [3], in the test on Escherichia coli [4] and in the test with Escherichia coli [5] was inactive.

As to `CO/N=C(\C(=O)N[C@@H]1C(=O)N2C(C(=O)O)=C(COC(C)=O)CS[C@H]12)c1csc(N)n1`, the outcome with Escherichia coli [4] was Active.
